Legend:
[1] = Stability of the active ingredients in the formulation buffered to pH 5.5-6.5; format: physicochemical; settings: pH 5.5-6.5 (lactic acid neutralized with sodium hydroxide) compared to more acidic or more basic conditions
Source text: Preferably, the present formulation for topical use is in the form of a cream or a lotion, and preferably has a pH between 5.5 and 6.5, advantageously about 6.

[2] = test system: abdominal incisional wound subjected to radiation; settings: oral and intra-peritoneal administration, model subjected to radiation; cited from earlier work
[3] = test system: complex regional pain syndrome type I; settings: 50% DMSO applied topically, N-acetylcysteine taken orally; cited from earlier work

Compound | stability [1] | effect on histological, biochemical and mechanical parameters of incisional wound healing [2] | efficacy in the treatment of complex regional pain syndrome type I [3]
NC(N)=O [urea] | improved |  | 
CC(=O)N[C@@H](CS)C(=O)O [N-acetylcysteine] | improved | effectiveness | equally efficient
C[S+](C)[O-] [50% DMSO, DMSO] |  |  | equally efficient

Reference: patent US20210052524A1, “N-ACETYLCYSTEINE AND UREA-BASED FORMULATION FOR THE TREATMENT OF DERMATOLOGICAL DISORDERS” (DERMALENA DI CALDERAN ANDREA, priority 2017, published 2021)
